Source: patent US8703813B2, “Compound with spiro chiral carbon backbone, preparation method thereof, and pharmaceutical composition containing the same” (SNU R & DB Foundation, priority 2008, dated 2014)

Assays:
C3H/10T1/2 cells [1] = assay: Adipocyte differentiation inhibitory ability (Oil Red O staining); type: cell-based, mouse; conditions: C3H/10T1/2, 10 μg/ml
Experimental: C3H/10T1/2 cells, which are mouse mesenchymal progenitor cells purchased from ATCC, were diluted in DMEM (Dulbecco's Modified Eagle Medium) medium containing 5.958 g/L HEPES, 3.7 g/L sodium bicarbonate and 10% FBS (fetal bovine serum), and cultured in 24-well culture plates at a density of 4×10^4 cells/well, in the presence of 5% CO2 at 37° C. for 2 days. When the cultured cells were grown to 90˜100% confluency in the culture plates, the cells were cultured in DMEM medium containing 10% FBS, to which 5μ/ml insulin, 1 μM dexamethason, and 5 μM troglitazone were added, in the presence of 5% CO2 at 37° C. for 8 days, to induce differentiation into adipocyte. The medium was exchanged every other day during differentiation. The C3H/10T1/2 cell line, in which differentiation into the adipocyte was induced, was fixed with 3.7% formaldehyde at room temperature for 30 minutes. An oil Red O solution dissolved in isopropanol at a concentration of 0.5% was diluted in distilled water at a ratio of 6:4, filtered through a 0.2 μm filter, and poured to the fixed cell line, which was stained for 1 hour. In order to observe only the cells differentiated into the adiopocyte, the dye solution was removed and the cells were washed with distilled water two times.
116V specimen extracted from sponge was dissolved in DMSO solvent, and allowed to treat C3H/10T1/2 cell lines, which are mouse mesenchymal progenitor cells, at concentrations of 1, 2.5, 5, 10, and 20 μg/ml. […] Then, after specimens of the compound 1 (1163), the compound 2 (1162), the compound 3 (1161), and the compound 4 (1164), which were purely separated from the 116V and 116VI species were obtained, the same experiment was performed. […] Remarkable cytotoxicity was not observed in each of the specimens during differentiation of adipocytes (FIG. 8).

C3H/10T1/2 cells [2] = assay: Osteoblast formation activity (calcium deposition assay, Alizarin Red S); type: cell-based, mouse; conditions: for osteoblast differentiation ability: C3H/10T1/2, calcium deposition; for concentration of maximum osteoblast differentiation activity: C3H/10T1/2, tested 1-20 ug/ml; for concentration at which cytotoxicity was observed: C3H/10T1/2 during osteoblast differentiation
Experimental: C3H/10T1/2 cells, which are mouse mesenchymal progenitor cells purchased from ATCC, were diluted in DMEM (Dulbecco's Modified Eagle Medium) medium containing 5.958 g/L HEPES, 3.7 g/L sodium bicarbonate, and 10% FBS (fetal bovine serum), and cultured in 24-well culture plates at a density of 4×10^4 cells/well, in the presence of 5% CO2 at 37° C. for 2 days. The cultured cells were grown to 90˜100% confluency in the culture plates, the cells were cultured in DMEM medium containing 10% FBS, to which 10 mM of β-glycerophosphate and 50μ/ml of ascorbic acid were added, in the presence of 5% CO2 at 37° C. for 6 days, to induce differentiation into osteoblast. The medium was exchanged every other day during differentiation. The C3H/10T1/2 cell line, in which differentiation into the osteoblast was induced, was washed with PBS (Phosphate Buffered Saline) once, and fixed with 70% ethanol at 20° C. for 1 hour. The cells after fixing were washed with cold PBS three times, and stained with 40 mM Alizarin Red S dye solution at room temperature for 20 minutes. The dye solution was removed and the cells were washed with distilled water three times in order to selectively observe only the cells differentiated into the osteoblast.
An aliquot 116V and an aliquot 116VI extracted and partitioned from sponges are dissolved in a DMSO solvent, and used to treat the C3H/10T1/2 cell line, mesenchymal progenitor cells, at concentrations of 1, 2.5, 5, 10, and 20 ug/ml. […] Since then, the same experiment was performed on the compound (1163), the compound 2 (1162), the compound 3 (1161), and the compound 4 (1164), which were purely separated from the aliquots 116V and 116VI, and as a result, it could be confirmed that the osteoblast differentiation ability was increased in the compounds 1, 3, and 4. […] To study a mechanism with respect to osteoblast differentiation ability, the C3H/10T1/2 cell lines were treated with the compound 1 and the compound 4 for 6 days, respectively. […] Also, the C3H/10T1/2 cell lines were treated with the compound 1 and the compound 4 for 6 days, respectively. […] Furthermore, it could be ascertained that combining of Runx2 and TAZ proteins was increased by treatment of the compounds and thus the activity of Runx2-meditated transcription was increased. The compound 5, which is an ester derivative of the compound 1 (1163), was synthesized in order to prepare a material having more excellent bioactivity, and the structure of the compound 5 obtained thus was determined. […] Therefore, the compounds of the present invention and derivatives thereof are expected to promote the differentiation of the osteoblast and thus play an innovative role in treatment of osteoporosis.

[3] = Solubility in organic solvents; type: physicochemical
Runx2 and TAZ = assay: Western blot of osteoblast differentiation mark factors; type: cell-based, mouse; conditions: C3H/10T1/2 treated for 6 days
Experimental: (§1) An aliquot 116V and an aliquot 116VI extracted and partitioned from sponges are dissolved in a DMSO solvent, and used to treat the C3H/10T1/2 cell line, mesenchymal progenitor cells, at concentrations of 1, 2.5, 5, 10, and 20 ug/ml. […] Since then, the same experiment was performed on the compound (1163), the compound 2 (1162), the compound 3 (1161), and the compound 4 (1164), which were purely separated from the aliquots 116V and 116VI, and as a result, it could be confirmed that the osteoblast differentiation ability was increased in the compounds 1, 3, and 4. […] To study a mechanism with respect to osteoblast differentiation ability, the C3H/10T1/2 cell lines were treated with the compound 1 and the compound 4 for 6 days, respectively. […] Also, the C3H/10T1/2 cell lines were treated with the compound 1 and the compound 4 for 6 days, respectively. […] Furthermore, it could be ascertained that combining of Runx2 and TAZ proteins was increased by treatment of the compounds and thus the activity of Runx2-meditated transcription was increased. The compound 5, which is an ester derivative of the compound 1 (1163), was synthesized in order to prepare a material having more excellent bioactivity, and the structure of the compound 5 obtained thus was determined. […]

Runx2, Osteocalcin, Msx2 = assay: Real time PCR of osteoblast differentiation mark factors; type: cell-based, mouse; conditions: C3H/10T1/2 treated for 6 days, RTPCR
Experimental: as §1

Row | SMILES | adipocyte differentiation ability (C3H/10T1/2 cells [1]) | osteoblast differentiation ability (C3H/10T1/2 cells [2]) | concentration of maximum osteoblast differentiation activity (C3H/10T1/2 cells [2]) | concentration at which cytotoxicity was observed (C3H/10T1/2 cells [2]) | Solubility [3] | protein expression of Runx2 and TAZ (Runx2 and TAZ) | transcription degree of differentiation mark factors (Runx2, Osteocalcin, Msx2, etc.) (Runx2, Osteocalcin, Msx2)
1 | CC(=O)O[C@@H]1C[C@H]2C(CO)=C[C@@]3(C=C(C)C[C@H](/C=C(\C)CCC=C(C)C)O3)O[C@H]2C=C1C [Compound 3] | remarkably decreased | increased | 2.5 µg/mL | > 2500 ng/mL | Easily Dissolved in Organic Solvent of Acetone, Methanol, DMSO, etc. |  | 
2 | CC(=O)O[C@H]1C[C@H]2C(CO)=C[C@@]3(C=C(C)C[C@H](/C=C(\C)CCC=C(C)C)O3)O[C@H]2C=C1C [Compound 4] | remarkably decreased | increased | 5 µg/mL | > 5000 ng/mL | Easily Dissolved in Organic Solvent of Acetone, Methanol, DMSO, etc. | increased | remarkably increased
3 | C=C(C)C(O)CC/C(C)=C/[C@H]1CC(C)=C[C@@]2(C=C(CO)[C@@H]3CC(=O)C(C)=C[C@@H]3O2)O1 (some centres unmarked) [Compound 10] |  |  |  |  | Easily Dissolved in Organic Solvent of Acetone, Methanol, DMSO, etc. |  | 
4 | CC(=O)OCC1=C[C@@]2(C=C(C)C[C@H](/C=C(\C)CCC=C(C)C)O2)O[C@H]2C=C(C)C(=O)C[C@@H]12 [Compound 2] | remarkably decreased |  |  |  | Easily Dissolved in Organic Solvent of Acetone, Methanol, DMSO, etc. |  | 
5 | CCCC(=O)OCC1=C[C@@]2(C=C(C)C[C@H](/C=C(\C)CCC=C(C)C)O2)O[C@H]2C=C(C)C(=O)C[C@@H]12 [Compound 5] |  | promoted differentiation of the osteoblast in a similar degree as that of the compound 1 |  |  |  |  | 
6 | CC1=C[C@@]2(C=C(CO)[C@@H]3CC(=O)C(C)=C[C@@H]3O2)O[C@@H](/C=C(\C)C/C=C/C(C)(C)O)C1 [Compound 9] |  |  |  |  | Easily Dissolved in Organic Solvent of Acetone, Methanol, DMSO, etc. |  | 
